What was measured:
Format in all cases: cell-based
[1] = tested on: Listeria monocytogenes strains; experiment: Challenge test in mashed potato, L. monocytogenes cocktail; conditions: for Microbial growth: mashed potato pH 5.6, 0.5%, 12° C.
Protocol: (§1) Five hundred grams of mashed potato were added to 500 g of distilled water and mixed thoroughly. The pH of the mixture was adjusted to pH 5.6 with 1N HCl. Three separate samples of 300 g of mashed potato were added with respectively, 0.5 % commercial sodium acetate, 0.5% of freeze dried fermentate and a control with no acetate. The three mashed potato samples (respectively with commercial acetate, fermentate and control) were heated at 70° C. for 5 min in a microwave and then dispatched aseptically in separate aliquots of 30 g each. The pH of all samples was checked before inoculation. Triplicate samples of each the three mashed potato aliquots were inoculated with 10^3-10^4 colony forming units per gram (cfu/g) of Gram-negative bacterial cocktail (3 E. Coli strains and 3 Salmonella strains), or L. monocytogenes cocktail and incubated at 12° C. for 2 weeks. Periodically, samples were withdrawn and bacterial counts were enumerated using BHI agar and incubated at 30° C. for 48 hours.
To confirm the effectiveness of the two sources of sodium acetate against Listeria monocytogenes strains, another challenge experiment in mashed potato was performed.

[2] = tested on: Cocktail (L. monocytogenes, Bacillus cereus, Escherichia coli, S. typhimurium); experiment: Challenge test in BHI broth, bacterial cocktail; conditions: for Bacterial growth (optical density 550 nm after 12 days): pH 5.6, 12° C.
Protocol: (§2) Commercial sodium acetate (Sigma) and the freeze-dried fermentate of the invention (pH 5.0) were tested in Brain Heart Infusion broth (BHI), using single and cocktail tests. BHI was added with:
(§3) (a) commercial sodium acetate at final concentrations of 0.25 and 0.5%;
(§4) (b) freeze dried fermentate (pH 5.0) at final concentrations of sodium acetate of 0.25 to 0.5%; and,
(§5) (c) a control sample consisted of BHI broth without sodium acetate.
(§6) For first samples, the pH of BHI broth with or without sodium acetate was adjusted to 5.6 with HCl (10%) and the samples filter-sterilized ([…], Millipore). For comparative samples, the pH was controlled at 7.0 and the sample filtered-sterilized.
(§7) The freeze-dried product was evaluated for its inhibitory actions against Gram-negative Gram-positive bacteria. Twenty-mL samples were inoculated with 10^4-10^5 cfu/mL of L. monocytogenes, B. cereus, E. coli, or S. typhimurium alone and combined. The samples were incubated at two conditions: at 30° C. for 24 h, and at 12° C. for 2 weeks.
(§8) The control samples consisted of samples with and without commercial sodium acetate.
An additional challenge test was carried out on the bacterial cocktail strains of Listeria monocytogenes, Escheriachia coli, Bacillus cereus, and Salmonella typhimurium.

[3] = tested on: challenge bacteria (L. monocytogenes, B. cereus, E. coli, S. typhimurium); experiment: Challenge test in BHI broth, challenge bacteria overall; conditions: neutral pH (6.5 to 7.0) and 30° C.
Protocol: as §2, §3, §4, §5, §6, §7, §8

Bacillus cereus = experiment: Challenge test in BHI broth, single strain; conditions: for Bacterial growth (optical density 550 nm after 12 days): pH 5.6, 12° C.
Protocol: as §2, §3, §4, §5, §6, §7, §8

Salmonella typhimurium = experiment: Challenge test in BHI broth, single strain; conditions: for Bacterial growth (optical density 550 nm after 12 days): pH 5.6, 12° C.
Protocol: as §2, §3, §4, §5, §6, §7, §8

Listeria monocytogenes = experiment: Challenge test in BHI broth, single strain; conditions: for Bacterial growth (optical density 550 nm after 12 days): pH 5.6, 12° C.
Protocol: as §2, §3, §4, §5, §6, §7, §8

Escherichia coli = experiment: Challenge test in BHI broth, single strain; conditions: for Bacterial growth (optical density 550 nm after 12 days): pH 5.6, 12° C.
Protocol: as §2, §3, §4, §5, §6, §7, §8

[4] = tested on: Gram-negative bacterial cocktail (3 E. Coli strains and 3 Salmonella strains); experiment: Challenge test in mashed potato, Gram-negative cocktail; conditions: 12° C.; for Microbial growth: mashed potato pH 5.6, 0.5%
Protocol: as §1
To confirm the effectiveness of the two sources of sodium acetate against Gram-negative bacteria, a cocktail of Gram-negative bacteria was used in a challenge experiment in mashed potato.

[5] = 0.25% sodium acetate, pH 5.6, 30° C.
[6] = 0.25% sodium acetate, pH 7.0, 30° C.
[7] = 0.5% sodium acetate, pH 5.6, 30° C.
[8] = 0.5% sodium acetate, pH 7.0, 30° C.

CC(=O)[O-].[Na+] [C, sodium acetate]
Microbial growth ([1]; day 0): 3.1 Log10 cfu/g
Microbial growth ([1]; day 2): 4.4 Log10 cfu/g
Microbial growth ([1]; day 5): 4.3 Log10 cfu/g
Microbial growth ([1]; day 7): 4.9 Log10 cfu/g
Microbial growth ([1]; day 14): 7.5 Log10 cfu/g
Delay of growth of Listeria monocytogenes (in words) ([1]; mashed potato, 14 days of incubation at 12° C.): unable to delay the growth of this organism for more than a week
Bacterial growth (optical density 550 nm after 12 days) ([2]; 0.25% sodium acetate): 0.287
Bacterial growth (optical density 550 nm after 12 days) ([2]; 0.5% sodium acetate): 0.266
Inhibition of the bacterial cocktail (in words) ([2]; pH 5.6 and at 2° C. (so in the source), both concentrations): failed to inhibit
Inhibition of the challenge bacteria (in words) [3]: neither commercial sodium acetate nor the fermentate inhibit
Bacterial growth (optical density 550 nm after 12 days) (Bacillus cereus; 0.25% sodium acetate): 0.017
Bacterial growth (optical density 550 nm after 24 hrs) (Bacillus cereus; [5]): 0.068
Bacterial growth (optical density 550 nm after 24 hrs) (Bacillus cereus; [6]): 0.325
Bacterial growth (optical density 550 nm after 12 days) (Bacillus cereus; 0.5% sodium acetate): 0.017
Bacterial growth (optical density 550 nm after 24 hrs) (Bacillus cereus; [7]): 0.042
Bacterial growth (optical density 550 nm after 24 hrs) (Bacillus cereus; [8]): 0.315
Inhibitory effect on growth (in words) (Bacillus cereus; pH 5.6 and below): exhibited inhibitory effects
Bacterial growth (optical density 550 nm after 12 days) (Salmonella typhimurium; 0.25% sodium acetate): 0.010
Bacterial growth (optical density 550 nm after 24 hrs) (Salmonella typhimurium; [5]): 0.089
Bacterial growth (optical density 550 nm after 24 hrs) (Salmonella typhimurium; [6]): 0.645
Bacterial growth (optical density 550 nm after 12 days) (Salmonella typhimurium; 0.5% sodium acetate): 0.013
Bacterial growth (optical density 550 nm after 24 hrs) (Salmonella typhimurium; [7]): 0.020
Bacterial growth (optical density 550 nm after 24 hrs) (Salmonella typhimurium; [8]): 0.600
Inhibitory effect on growth (in words) (Salmonella typhimurium; pH 5.6 and below): exhibited inhibitory effects
Bacterial growth (optical density 550 nm after 12 days) (Listeria monocytogenes; 0.25% sodium acetate): 0.212
Bacterial growth (optical density 550 nm after 24 hrs) (Listeria monocytogenes; [5]): 0.216
Bacterial growth (optical density 550 nm after 24 hrs) (Listeria monocytogenes; [6]): 0.429
Bacterial growth (optical density 550 nm after 12 days) (Listeria monocytogenes; 0.5% sodium acetate): 0.220
Bacterial growth (optical density 550 nm after 24 hrs) (Listeria monocytogenes; [7]): 0.063
Bacterial growth (optical density 550 nm after 24 hrs) (Listeria monocytogenes; [8]): 0.399
Bacterial growth (optical density 550 nm after 12 days) (Escherichia coli; 0.25% sodium acetate): 0.017
Bacterial growth (optical density 550 nm after 24 hrs) (Escherichia coli; [5]): 0.231
Bacterial growth (optical density 550 nm after 24 hrs) (Escherichia coli; [6]): 0.589
Bacterial growth (optical density 550 nm after 12 days) (Escherichia coli; 0.5% sodium acetate): 0.013
Bacterial growth (optical density 550 nm after 24 hrs) (Escherichia coli; [7]): 0.099
Bacterial growth (optical density 550 nm after 24 hrs) (Escherichia coli; [8]): 0.587
Inhibitory effect on growth (in words) (Escherichia coli; pH 5.6 and below): exhibited inhibitory effects
Microbial growth ([4]; day 0): 4.6 Log10 cfu/g
Microbial growth ([4]; day 2): 4.6 Log10 cfu/g
Microbial growth ([4]; day 5): 4.5 Log10 cfu/g
Microbial growth ([4]; day 7): 4.5 Log10 cfu/g
Microbial growth ([4]; day 9): 4.1 Log10 cfu/g
Inhibitory effectiveness on growth of Gram-negative cocktail (in words) ([4]; mashed potato): inhibitory effectiveness

From US6387427B1, “Method of preservation of a food product” (Nestec S.A., priority 2000, dated 2002)
